Assay results from patent publication US10548843B2, “Sustained-release silica composite depot non-steroidal anti-inflammatory drug delivery” (Solani Therapeutics, priority 2015, dated 2020).

Experiments:
[1] = cited from earlier work
[2] = Mouse study: body weight at necropsy; type: in vivo, mouse (BALB/cAnNCrl, male); details: SiO2 left flank, SiO2 with meloxicam right flank, s.c. 0.1 ml
Description: A mouse study was carried out using 15 animals from University of Turku, Central Animal Laboratory, Pharmacity breeding unity. All animals were BALB/cAnNCrl, male. The animals were acclimatised for 15 days. No period of isolation was needed. At the start of the study the animals were aged 10-13 weeks and weighed 28.9 g±1.38 g (min. 26.6 g, max 31.1 g).
Administration of the test items was carried out according to the study design set out in Table 3. The test item was administered by subcutaneous (back) injection using a syringe and an 18G needle at a dose volume of 0.1 ml/mouse.
Animals were weighed and euthanized (CO2) at the end of the experiment (Animals #1, 2, and 3 were not weighed). The injection sites were macroscopically observed and digital pictures from test items in soft tissue was taken at the each time point. The test item (gel) was removed from a soft tissue when possible.

[3] = Concentration of meloxicam in plasma of dogs after single subcutaneous silica hydrogel depot; type: in vivo; details: dog, sc, 3.16 mg meloxicam/kg bodyweight, single s.c. silica hydrogel depot
Description: Example 1 relates to animal studies carried out. […] The appropriate dose of TI was administered subcutaneously as a one off dose at the area behind the shoulder blade.

[4] = dogs, single oral administration; cited from earlier work
[5] = Animal 4, necropsy 7 days after injections
[6] = Animal 7, necropsy 14 days after injections
[7] = Animal 10, necropsy 28 days after injections

Cc1cnc(NC(=O)C2=C(O)c3ccccc3S(=O)(=O)N2C)s1 [meloxicam]
Solubility in methanol ([1]; methanol): very slightly soluble | Solubility in strong acids and bases ([1]; strong acids and bases, compared with water): higher solubility | Solubility in water [1]: practically insoluble in water | Weight at necropsy [2, 5]: 27.3 g | Weight gain [2, 5]: -0.7 g | Weight at necropsy [2, 6]: 29.0 g | Weight gain [2, 6]: 0.0 g | Weight at necropsy [2, 7]: 32.7 g | Weight gain [2, 7]: 1.6 g | concentration at 0 hours ([3]; Dog 1, 0.0 hours): 0 µg/mL | concentration at 0.5 hours ([3]; Dog 1, 0.5 hours): 0.0432 µg/mL | concentration at 1 hours ([3]; Dog 1, 1.0 hours): 0.132 µg/mL | concentration at 2 hours ([3]; Dog 1, 2.0 hours): 0.296 µg/mL | concentration at 3 hours ([3]; Dog 1, 3.0 hours): 0.379 µg/mL | concentration at 4 h ([3]; Dog 1, 4.0 hours): 0.402 µg/mL | concentration at 6 h ([3]; Dog 1, 6.0 hours): 0.375 µg/mL | concentration at 8 h ([3]; Dog 1, 8.0 hours): 0.294 µg/mL | concentration at 12 h ([3]; Dog 1, 12.0 hours): 0.363 µg/mL | concentration at 504 h ([3]; Dog 1, 504.0 hours): 0.0043 µg/mL | concentration at 576 h ([3]; Dog 1, 576.0 hours): 0.0026 µg/mL | concentration at 672 h ([3]; Dog 1, 672.0 hours): 0.0015 µg/mL | concentration at 840 hours ([3]; Dog 1, 840.0 hours): 0.001 µg/mL | concentration at 1008 hours ([3]; Dog 1, 1008.0 hours): 0.0009 µg/mL | concentration at 1176 hours ([3]; Dog 1, 1176.0 hours): 0.0005 µg/mL | concentration at 1344 hours ([3]; Dog 1, 1344.0 hours): 0.0004 µg/mL | concentration at 0 hours ([3]; Dog 2, 0.0 hours): 0 µg/mL | concentration at 0.5 hours ([3]; Dog 2, 0.5 hours): 0.027 µg/mL | concentration at 1 hours ([3]; Dog 2, 1.0 hours): 0.076 µg/mL | concentration at 2 hours ([3]; Dog 2, 2.0 hours): 0.153 µg/mL | concentration at 3 hours ([3]; Dog 2, 3.0 hours): 0.227 µg/mL | concentration at 4 h ([3]; Dog 2, 4.0 hours): 0.257 µg/mL | concentration at 6 h ([3]; Dog 2, 6.0 hours): 0.349 µg/mL | concentration at 8 h ([3]; Dog 2, 8.0 hours): 0.344 µg/mL | concentration at 12 h ([3]; Dog 2, 12.0 hours): 0.447 µg/mL | concentration at 504 h ([3]; Dog 2, 504.0 hours): 0.115 µg/mL | concentration at 576 h ([3]; Dog 2, 576.0 hours): 0.101 µg/mL | concentration at 672 hours ([3]; Dog 2, 672.0 hours): 0.0673 µg/mL | concentration at 840 hours ([3]; Dog 2, 840.0 hours): 0.0401 µg/mL | concentration at 1008 hours ([3]; Dog 2, 1008.0 hours): 0.0179 µg/mL | concentration at 1176 hours ([3]; Dog 2, 1176.0 hours): 0.0056 µg/mL | concentration at 1344 hours ([3]; Dog 2, 1344.0 hours): 0.0026 µg/mL | concentration at 0 hours ([3]; Dog 3, 0.0 hours): 0 µg/mL | concentration at 0.5 hours ([3]; Dog 3, 0.5 hours): 0.0271 µg/mL | concentration at 1 hours ([3]; Dog 3, 1.0 hours): 0.0939 µg/mL | concentration at 2 hours ([3]; Dog 3, 2.0 hours): 0.215 µg/mL | concentration at 3 hours ([3]; Dog 3, 3.0 hours): 0.301 µg/mL | concentration at 4 h ([3]; Dog 3, 4.0 hours): 0.319 µg/mL | concentration at 6 h ([3]; Dog 3, 6.0 hours): 0.359 µg/mL | concentration at 8 h ([3]; Dog 3, 8.0 hours): 0.404 µg/mL | concentration at 12 h ([3]; Dog 3, 12.0 hours): 0.559 µg/mL | concentration at 504 h ([3]; Dog 3, 504.0 hours): 0.0331 µg/mL | concentration at 576 h ([3]; Dog 3, 576.0 hours): 0.0166 µg/mL | concentration at 672 hours ([3]; Dog 3, 672.0 hours): 0.0116 µg/mL | concentration at 840 hours ([3]; Dog 3, 840.0 hours): 0.0065 µg/mL | concentration at 1008 hours ([3]; Dog 3, 1008.0 hours): 0.0056 µg/mL | concentration at 1176 hours ([3]; Dog 3, 1176.0 hours): 0.003 µg/mL | concentration at 1344 hours ([3]; Dog 3, 1344.0 hours): 0.0024 µg/mL

NS(=O)(=O)c1ccc(-n2nc(C(F)(F)F)cc2-c2ccc(F)cc2)cc1 [Mavacoxib]
Time a therapeutic level is maintained [4]: one month

CC(C(=O)O)c1ccc2c(c1)[nH]c1ccc(Cl)cc12 (centres unmarked) [carprofen]
Solubility in water [1]: practically insoluble in water
